Measured values from paper PMC6941404, “Pigmentosins from Gibellula sp. as antibiofilm agents and a new glycosylated asperfuran from Cordyceps javanica” (Beilstein Journal of Organic Chemistry, 2019).
Values after ≈ are worked out from the molar mass of the structure shown. Where two headings read alike, the source gives them in different places.

What was measured:
Bacillus subtilis DSM10 = test: Antimicrobial activity, broth microdilution MIC; type: cell-based; details: for MIC: read-out: Antimicrobial activity (MIC) BS
Description: (§1) To evaluate the biological effects of compounds 1–6, various assays were carried out. The antimicrobial activity of the isolated compounds against Bacillus subtilis DSM10, Escherichia coli DSM498, Candida tenuis MUCL29892, and Mucor plumbeus MUCL49355 was determined as described by Kuephadungphan and co-workers. The nematicidal activity against Caenorhabditis elegans was investigated using a microtiter plate assay according to Helaly and co-workers, while the cytotoxicity was tested against murine fibroblast (L929) and human HeLa (KB3.1) cell lines according to Chepkirui and co-workers.
Biological activity screening of compounds 1–6
Antimicrobial activity assay
The minimum inhibitory concentration (MIC) of compounds 1–6 was determined using the broth microdilution method according to Kuephadungphan et al.4 against B. subtilis DSM10, E. coli DSM498, C. tenuis MUCL29892 and M. plumbeus MUCL49355. Stock suspension of each bacterium and yeast (100 μL) was transferred to 100 mL of EBS medium and YM medium, respectively.
Suspensions of B. subtilis and C. tenuis were incubated on a rotary shaker at 30 °C for 18–24 h while E. coli was grown at 37 °C for 24 h. After incubation, the suspension was adjusted to a concentration of 6.7 × 10^5 cells/mL using a hemacytometer. The spore suspension of M. plumbeus was prepared at a concentration of 6.7 × 10^5 conidia/mL using YM medium. The determination of MIC was performed in a 96-well microtiter plate. The compounds dissolved in methanol at a concentration of 4.5 mg/mL (20 μL) were transferred to the first row of the plate. Standard antibiotics including ciprofloxacin (bacteria) and nystatin (yeast and fungus), and methanol were used as positive and negative controls, respectively. Inoculum suspension (280 μL) was added to the first row containing compounds and 150 μL were added to the rest. The solutions were then serially 2-fold diluted to 8 concentrations ranging from 2.34–300 μg/mL. Plates were incubated at 30 °C on a microplate-vibrating shaker for 24 h for bacteria and 48 h for yeast and filamentous fungus. […]
(§2) The assay was kindly conducted by Wera Collisi, Department of Microbial Drugs, Helmholtz Centre of Infection Research, Germany. The tested cell lines were cultured in EBM -2 (Lonza) sup plemented with 10% fetal bovine serum (Gibco) under 10% CO2 at 37 °C. A 60 µL of serial dilutions from an initial stock (1 mg/mL) of the test compounds in MeOH was added to 120 µL aliquots of a cell suspension (50,000 cells/mL) in 96-well microplates.
After incubation for five days, 20 µL of MTT in phosphate buffered saline (PBS) were added to give a final concentration of 0.5 mg/mL. The plates were further incubated for two hours. The precipitate

Cytotoxicity assay (MTT) = type: cell-based; details: human; HeLa cell line KB3.1; MTT, five days; NA = No activity; a = Proliferation inhibition, no altered or dead cells
Description: as §1
Biological activity screening of compounds 1–6 […]
as §2, with “The isolated compounds were tested for cytotoxic activity using the MTT (3 -(4,5-dimethylthiayol -2-yl)-2,5-diphenyltetrayolium bromide) method in 96 -well microtiter plates following the procedure previously described by Chepkirui et al.7 against th e cervix carcino ma cell line KB3.1 and the established mouse fibroblast cell line L929. The assay” for “The assay”
After incubation for five days, 20 µL of MTT in phosphate buffered saline (PBS) were added to give a final concentration of 0.5 mg/mL. The plates were further incubated for two hours. The precipitate […]
of formazan crystals was centrifuged and the supernatant was then discarded. Each well was washed with 100 µL of PBS and 100 µL of isopropanol containing 0.4% hydrochloric acid were subsequently added in order to get the residual dissolved. The plates were gently shaken for 20 min before the absorbance at 590 nm was measured using an ELISA microplate reader (Victor). The concentration, at which the growth of cells was inhibited to 50% of the control (IC50), was obtained from the dose - response curves. Methanol was used as negative control while epothilone A and B wer e used as positive controls for L929 and KB3.1 cell lines, respectively. […]
After incubation at 37 °C under shaking condition, the overnight cultures were adjusted to equal the turbidity of 0.5 McFarland standard using the assay medium. The assay was carried out in 96 -well tissue cultured -treated microplates (TPP®, Germany) for S. aureus and non-treated plates (Falcon®MicroTestTM, USA) for P. aeruginosa , in which 10 μ L of each compound (0.5 mg/m L) in six replicates were mixed together with 140 μ L of bacterial suspension. Methanol and CASO medium with and without 4% glucose were used as negative controls and tetracycline (100 μg/m L) as positive control. Plates were covered with a sterile adhesive porous paper (Kisker Biotech GmbH, Steinfurt, Germany) and incubated at 37 °C for 24 h.
After incubation, ba cterial biofilms were stained with 0.1% crystal violet solution (Sigma -Aldrich) following the protocol of O’Toole .9 Then, the biofilm was subsequently quantified using a microplate reader at 550 nm. […]
aeruginosa PA14 were further evaluated for their bacteriostatic and bactericidal activit ies. The assay was performed in the Bioscreen 100 -well Honeycomb plate according to the protocol described by Yuyama et al. 13 where the MIC values were determined. […]

B. subtilis = tested on: B. subtilis; parameters: method as in PMID 22889083; details: reported by Grove and co-workers; cited from earlier work
[1] = Bacillus subtilis DSM10, 24 h, range 2.34–300 μg/mL, NA = No activity

| Structure (SMILES) | Antimicrobial activity (MIC) BS (Bacillus subtilis DSM10; [1]) [µg/mL] | MIC (Bacillus subtilis DSM10; Bacillus subtilis, DSM10, 24 h) [µg/mL] | IC50 (Cytotoxicity assay (MTT)) [µg/mL] | MIC against B. subtilis (B. subtilis) [µg/mL] | MIC (Bacillus subtilis DSM10; [1]) [µg/mL] |
| --- | --- | --- | --- | --- | --- |
| COc1cc(O)c2c(O)c3c(cc2c1-c1c(OC)cc(O)c2c(O)c4c(cc12)CC(C)OC4=O)CC(C)OC3=O (stereo not drawn) [Pigmentosin A (1), pigmentosin A] | 12.5 | 12.5 (≈ 22.9 µM) | 17 (≈ 31.1 µM) | 20 (≈ 36.6 µM) |  |
| COc1cc(O)c2c(O)c3c(cc2c1-c1c(OC)cc(O)c2c(O)c4c(cc12)CC(CC(C)O)OC4=O)CC(C)OC3=O (stereo not drawn) [Pigmentosin B (2), pigmentosin B] | 100 |  |  |  | 100 (≈ 169 µM) |
